Like-named read-outs stand apart in the source and are kept apart here.
Legend:
[1] = system: FXS neurons; assay: neurite outgrowth in FXS neurons with genetic or pharmacological inactivation of S1R; format: cell-based, human
Source text: To investigate whether the rescue of neurite outgrowth deficits in FXS neurons following pridopidine treatment is mediated via sigma-1 receptor (S1R), virally-delivered Cas9 was used to target and inactivate S1R in FXS NPC prior to neuronal differentiation. Effective inactivation of S1R gene and loss of its protein product was confirmed by western blot (FIG. 6A).
The effect of a pharmacological inhibitor of S1R on pridopidine-mediated neurite outgrowth improvements in FXS neurons was further tested.

[2] = system: human FXS neurons; details: 8-day period, vs DMSO
Source text: Control cells used were a human Embryonic Stem (ES) cell line.
FIG. 2A upper panels show MAP2/Tuj-1/DNA immunostaining; lower panels show GABA/NeuN/DNA immunostaining.
Neurite growth is a surrogate of neuronal development and maturation.
Open squares show data from DMSO treated FXS neurons.

[3] = system: human patients afflicted with a FXS related disorder; details: periodic (daily or twice daily) oral administration, pediatric or adult patients
Method: The human patients are pediatric patients or adult patients.
A pridopidine composition as described herein is administered orally to a subject suffering from a FXS related disorder.

[4] = system: human patients afflicted with FXS; details: periodic (daily or twice daily) oral administration, pediatric or adult patients
[5] = system: rat striatum; details: transcriptomic analysis; cited from earlier work
[6] = system: Q175 knock-in (Q175 KI) HD mouse model; details: cited from earlier work
[7] = system: neuroblastoma cell line; details: S1R-dependent; cited from earlier work

SMILES	effect on pridopidine-mediated neurite outgrowth improvement in FXS neurons ([1]; co-administration of NE-100 (1 μM) with pridopidine)	neurite growth in FXS neurons ([2]; 1 uM pridopidine)	neurite growth in FXS neurons ([2]; 5 uM pridopidine)	neurite outgrowth in FXS neurons ([1]; 100 nM pridopidine for 24 hrs)	improvement in neurite outgrowth in FXS neurons in which S1R was inactivated (S1RKO) ([1]; 100 nM pridopidine for 24 hrs, S1RKO (Cas9))	treatment of a FXS related disorder [3]	treatment of FXS [4]	expression of BDNF, D1R, GR and Akt/PI3K pathways [5]	gene expression profile versus HD disease gene expression profile [6]	secretion of BDNF [7]
CCCN(CCC)CCc1ccc(OC)c(OCCc2ccccc2)c1 [NE-100, reference compound]	blocked the effect of pridopidine									
CCCN1CCC(c2cccc(S(C)(=O)=O)c2)CC1 [pridopidine, 4-[3-(methylsulfonyl)phenyl]-1-propyl-piperidine]		significant improvement in neurite growth	significant improvement in neurite growth	improvement in neurite outgrowth	abolished	effective	effective	activates expression	reversed pattern	enhances secretion

Source: patent US12551474B2, “Use of pridopidine for the treatment of fragile X syndrome” (PRILENIA NEUROTHERAPEUTICS LTD., priority 2017, dated 2026)
